How the values were obtained:
[1] = system: P. aeruginosa (PA01); assay: Checkerboard potentiation assay with novobiocin; assay type: cell-based
Procedure: (§1) Bacterial strains and culture conditions. The following bacterial strains were used within this study; A. baumannii (ATCC 17978), K. pneumoniae (ATCC 43816), K. pneumoniae (ATCC 43816, expressing pGDP2:mcr-1), P. aeruginosa (PA01). Bacterial growth was in cation-adjusted Mueller-Hinton broth (MHB) at 37° C., and inoculum was prepared according to CLSI protocol (CLSI 2015).
(§2) Potentiation assays. Checkerboard analyses were conducted with each drug serially diluted at eight concentrations to create an 8×8 matrix. At least two biological replicates were done for each combination, and the means were used for FIC calculation. The FIC for each drug was calculated by dividing the concentration of the drug in the presence of codrug in a combination for a well showing <10% growth by the MIC for that drug alone. The FIC index (FICI) is the sum of the two FICs, with an FIC index≤0.5 deemed synergistic.
(§3) To probe the spectrum of activity of the present analogs beyond A. baumannii, their interactions with novobiocin were assessed against the high-priority Gram-negative pathogens Klebsiella pneumoniae and P. aeruginosa (FIG. 5).

[2] = system: K. pneumoniae (ATCC 43816); assay: Checkerboard potentiation assay with novobiocin; assay type: cell-based
Procedure: as §1, §2, §3

[3] = HEK293 cytotoxicity assay (Cell Titer Glo); assay type: cell-based; settings: human, HEK293T Cytotoxicity (IC50, μg/mL)
Procedure: Cytotoxicity Assays. HEK293 (ATCC CRL 1573) cells were left to adhere for 18 h at 7.5×10^3 cells per well in DMEM containing 10% FBS and 2 mM L-glutamine. Compound was added directly into the well. After 48 h of treatment Promega Cell Titer Glo 2.0® was added, shaken for 10 min, and luminescence read (Biotek Neo). AC50 values were calculated using a four-parameter logistic curve in GraphPad Prism 9.
Focusing on only the analogs that retained synergistic activity with novobiocin (FICI≤0.5), half-maximal activity (AC50) values were calculated against HEK293 cells using a CellTiter-Glo® based assay to approximate cell viability. […] Specifically, the FICI value for both P35 and P36 was 0.094 against A. baumannii, while their AC50 values were 235 μg/mL and 200 μg/mL, respectively.

[4] = system: A. baumannii (ATCC 17978); assay: Checkerboard potentiation assay with novobiocin; assay type: cell-based; settings: with novobiocin
Procedure: as §1, §2

[5] = system: LPS from E. coli EH100; assay: BODIPY-Cadaverine LPS displacement assay; assay type: binding; settings: for LPS Displacement (EC50, μg/mL): BODIPY-cadaverine displacement from E. coli EH100 LPS
Procedure: BODIPY-Cadaverine LPS displacement assay. The BODIPY-cadaverine LPS displacement assay was performed as previously described (Wood et al. 2004. Combinatorial Chemistry & High Throughput Screening, 7: 239-49; Klobucar et al. 2021. ACS Chemical Biology, 16: 929-42). A solution of BODIPY-cadaverine (2.25 μM) and LPS from E. coli EH100 (5.25 μM) in Tris-HCl buffer (50 mM, pH 7.4) was prepared. 0.5 μL of compound and 49.5 μL of the Tris-HCl buffer with BODIPY-cadaverine and LPS solution were added to a Corning nonbinding surface black 384-well polystyrene plate. Fluorescence intensity was measured immediately with an excitation wavelength of 580 nm and an emission wavelength of 620 nm. EC50 values were calculated using a three-parameter logistic curve in GraphPad Prism 9.

Row | Compound | FICI PA [1] | FICI KP [2] | IC50 at 48 h [3] [µg/mL] | FICI AB [4] | LPS Displacement (EC50, μg/mL) [5] [µg/mL] | Increase of LPS binding affinity compared to pentamidine ([5]; BODIPY displacement EC50 relative to pentamidine) [fold]
1 | N=C(N)c1ccc(OCCC2(CCOc3ccc(C(=N)N)cc3)CCC(C(=O)O)CC2)cc1 (centres unmarked) [Analog P30] | 2 | 1 | 1100 | 0.625 | 119.4 | 
2 | N=C(N)c1ccc(OCCC2(CCOc3ccc(C(=N)N)cn3)CCCC2)nc1 [Analog P39] | 0.3125 |  | 53.7 | 0.094 | 48.34 | 
3 | C[C@H](CCC[C@@H](C)Oc1ccc(C(=N)N)cc1)Oc1ccc(C(=N)N)cc1 [Analog P15C] | 0.375 | 0.25 |  |  | 148.8 | 
4 | C[C@H](CCC[C@H](C)Oc1ccc(C(=N)N)cc1)Oc1ccc(C(=N)N)cc1 [Analog P15B] | 0.187 | 0.187 | 239 |  | 132.5 | 
5 | N=C(N)c1ccc(OCCC2(CCOc3ccc(C(=N)N)cc3)CCCC2)cc1 [Analog P02] | 0.281 | 0.187 | 15.3 | 0.156 | 77.29 | 
6 | N=C(N)c1ccc(OCCCCCOc2ccc(C(=N)N)cc2F)c(F)c1 [Analog P12] | 0.5 | 0.187 | 95.5 | 0.187 | 63.21 | 
7 | N=C(N)c1ccc(OCCN(CCOc2ccc(C(=N)N)cc2)CCC(F)(F)F)cc1 [Analog P34] | 0.375 |  | > 80 | 0.25 | 134.3 | 
8 | N/C(=N\O)c1ccc(OCCCCCOc2ccc(/C(N)=N/O)nc2)cn1 [Analog P19] | 2 | 2 | 135 |  |  | 
9 | N=C(N)c1ccc(OCCNCCOc2ccc(C(=N)N)cc2)cc1 [Analog P31A] | 2 |  | > 640 | 0.5 | 497.8 | 
10 | N=C(N)c1ccc(OCC2(COc3ccc(C(=N)N)cc3)CCCCC2)cc1 [Analog P31] | 0.187 | 0.0937 | 73.5 | 0.094 | 43.82 | 
11 | C[C@@H](CCCOc1ccc(C(=N)N)cc1)COc1ccc(C(=N)N)cc1 [Analog P22R] | 0.3125 | 0.25 | 94.2 |  | 26.02 | 
12 | N=C(N)c1ccc(OCCC2(CCOc3ccc(C(=N)N)cc3)CCCCC2)cc1 [Analog P03] | 0.625 | 0.078 |  | 0.094 |  | 
13 | N=C(N)c1ccc(OCCC[C@@H]2CCCN(c3ccc(C(=N)N)cc3)C2)cc1 [Analog P24A] | 0.375 | 0.187 | 77.9 |  | 91.74 | 
14 | CC(CCCC(C)Oc1ccc(C(=N)N)cc1)Oc1ccc(C(=N)N)cc1 (centres unmarked) [Analog P15] | 0.281 | 0.25 |  |  |  | 
15 | N=C(N)c1ccc(OCCC(N)CCOc2ccc(C(=N)N)cc2)cc1 (centres unmarked) [Analog P37] | 2 |  |  | 0.75 |  | 
16 | CCC(CC)(CCOc1ccc(C(=N)N)cc1)CCOc1ccc(C(=N)N)cc1 [Analog P07] | 1 | 0.156 | 31.2 | 0.0625 | 19.04 | > 10
17 | c1c[nH]c(-c2ccc(OCCCCCOc3ccc(-c4ncc[nH]4)cc3)cc2)n1 [Analog P11] | 2 | 2 | 104 |  |  | 
18 | C[C@H](CCCOc1ccc(C(=N)N)cc1)COc1ccc(C(=N)N)cc1 [Analog P22S] | 0.375 | 0.25 | 53.7 |  | 59.08 | 
19 | N=C(N)c1ccc(OCCC(CCOc2ccc(C(=N)N)cc2)N2CCCC2)cc1 (centres unmarked) [Analog P38] | 2 |  | > 80 | 0.75 | 202 | 
20 | CC(C)(CCOc1ccc(C(=N)N)cc1)CCOc1ccc(C(=N)N)cc1 [Analog P06] | 0.375 | 0.156 | 69.1 | 0.187 | 62.47 | 
21 | N=C(N)c1ccc(OCCCCCOc2ccc(C(=N)N)cn2)nc1 [Analog P20] | 2 | 0.25 | > 320 | 0.25 |  | 
22 | N=C(N)c1ccc(OCCCCCOc2ccc(C(=N)N)nc2)cn1 [Analog P16] | 1 | 0.375 | 183 | 0.25 | 60.19 | 
23 | N=C(N)c1ccc(OC2CCC(Oc3ccc(C(=N)N)cc3)CC2)cc1 (centres unmarked) [Analog P08] | 2 | 0.25 | > 160 | 0.375 | 288.7 | 
24 | C[C@@H](CCC[C@H](C)Oc1ccc(C(=N)N)cc1)Oc1ccc(C(=N)N)cc1 [Analog P15A] | 0.5 | 0.25 | 106 |  | 118.2 | 
25 | N=C(N)c1ccc(OCCC2(CCOc3ccc(C(=N)N)cc3)CCCCCC2)cc1 [Analog P04] | 0.531 | 0.25 | 37.1 | 0.14 | 15.97 | 
26 | N=C(N)c1ccc(OCCC[C@H]2CCCN(c3ccc(C(=N)N)cc3)C2)cc1 [Analog P24B] | 0.75 | 0.187 | 57.9 |  | 149.5 | 
27 | N=C(NC1CCCCC1)c1ccc(OCCCCCOc2ccc(C(=N)NC3CCCCC3)nc2)cn1 [Analog P18] | 2 | 1 | 22.2 |  | 218.8 | 
28 | N=C(N)c1ccc(OCCC2CCCCC2CCOc2ccc(C(=N)N)cc2)cc1 (centres unmarked) [Analog P21] | 1 | 0.046 | 19.2 | 0.094 | 13.08 | 
29 | colistin [reference compound] |  |  |  |  | 7.81 | 
